Reference: patent US8846639B2, “Oligomeric compounds comprising bicyclic nucleosides and having reduced toxicity” (Isis Pharmaceutical, Inc., priority 2008, dated 2014)
“And” between values parts separate entries of the source, which are not always exact repeats. Equal values may be shown once.

Tests used:
[1] = system: PTEN RNA; test: PTEN RNA in liver (Example 15 in vivo study); design: species or system mice; details: 72 h, compared to PBS control
Description: (§1) Six week old male Balb/c mice (Jackson Laboratory, Bar Harbor, Me.) were administered a single intraperitoneal (i.p) injection of oligomers as set forth in the table below.
(§2) Mice were divided into 9 groups, with 4 mice in each group. The mice of 8 groups received a single dose, administered i.p., of one of the above oligomeric compounds at a dose of 100, 32, 10, or 3.2 mg/kg. The final group was dosed with phosphate buffered saline (PBS) as a control. The mice were sacrificed 72 hours after administration. Antisense activity was determined by measuring PTEN RNA in liver.

[2] = Serum ALT, individual animals (Example 15); type: in vivo, mice; details: for ALT levels - Individual animals: serum, four animals
Description: as §2

[3] = Body weight at sacrifice relative to pre-dose (Example 15); type: in vivo, mice; details: for % of pre-dose weight: 72 h, PBS = 99
Description: as §2
(§3) Body weight was measured before treatment and again at sacrifice 72 hours after treatment.

[4] = Spleen weight as a measure of inflammatory response (Example 15); type: in vivo, mice; details: for spleen weight, % Control: relative to PBS control
Description: as §2
(§4) Spleens were weighed as a measure of inflammatory response.

[5] = system: PTEN RNA; test: PTEN RNA in liver (Example 16 in vivo study); design: species or system mice; details: for % Reduction PTEN RNA: liver, 72 h, compared to PBS control; for ED50: PTEN RNA in liver
Description: as §1
as §2, with “17” for “9”, “16” for “8”, “liver and is expressed as % reduction compared to PBS control mice.” for “liver.”

[6] = Serum ALT, individual animals (Example 16); type: in vivo, mice; details: four animals
Description: as §2, with “17” for “9”, “16” for “8”, “liver and is expressed as % reduction compared to PBS control mice.” for “liver.”
Toxicity was assessed by measuring alanine aminotranferease (ALT) in serum.

[7] = Body weight at sacrifice relative to pre-dose (Example 16); type: in vivo, mice; details: 72 h, PBS = 102
Description: as §2, with “17” for “9”, “16” for “8”, “liver and is expressed as % reduction compared to PBS control mice.” for “liver.”
as §3

[8] = Spleen weight as a measure of inflammatory response (Example 16); type: in vivo, mice; details: for spleen weight, % Control: relative to PBS control
Description: as §2, with “17” for “9”, “16” for “8”, “liver and is expressed as % reduction compared to PBS control mice.” for “liver.”
as §4

[9] = system: PTEN mRNA; test: PTEN mRNA levels in liver, real-time PCR (Example 14 in vivo study); design: species or system mice; details: for PTEN mRNA levels (% inhibition): liver, 72 h; for ED50: estimated, Graphpad Prism, dose at which 50% mRNA reduction is observed
Description: (§5) Six week old male Balb/c mice (Jackson Laboratory, Bar Harbor, Me.) were administered a single intraperitoneal (i.p) injection with 4′-CH2—O-2′ BNA containing oligomers (392745 and 392063) and 6(S)-4′-CH(CH3)—O-2′ BNA containing oligomers (392749 and 411847) at a does of 3.2, 10, 32, 66 and 100 mg/kg. Oligomers 392063 and 411847 contain LNA nucleosides with methylated pyrimidines, and oligomers 392745 and 392749 contain LNA nucleosides with non-methylated pyrimidines in the wings. All intemucleoside linkages are phosphorothioates, nucleosides not followed by a subscript are βD-2′-deoxyribonucleosides, nucleosides followed by a subscript 1 are 4′-CH2—O-2′ modified bicyclic nucleosides, nucleosides followed by a subscript S are 6(S)-4′-CH(CH3)—O-2′ modified bicyclic nucleosides wherein S indicates the configuration at the 6 carbon atom and ^MeC indicates a 5′-methyl cytosine nucleoside.
Each dose group consisted of four animals. The mice were sacrificed 72 hours following the final administration to determine the PTEN mRNA levels in liver using real-time PCR and RIBOGREEN® RNA quantification reagent (Molecular Probes, Inc. Eugene, Oreg.) according to standard protocols. PTEN mRNA levels were determined relative to total RNA (using Ribogreen), prior to normalization to saline-treated control. Results are listed below as the average % inhibition of mRNA expression for each treatment group, normalized to saline-injected control.
Estimated ED50 concentrations for each oligomers were calculated using Graphpad Prism. ED50 is the dose at which 50% mRNA reducation is observed.

[10] = Liver transaminase (ALT) levels in serum (Example 14); type: in vivo, mice
Description: as §5
Liver transaminase levels, alanine aminotranferease (ALT) and aspartate aminotransferase (AST), in serum were also measured relative to saline injected mice. Increases in the transaminase levels can indicate hepatotoxicity. The approximate liver transaminase levels are listed below.

Substance | % Reduction PTEN RNA ([5]; 3.2 mg/kg single i.p.) | % Reduction PTEN RNA ([5]; 10 mg/kg single i.p.) | % Reduction PTEN RNA ([5]; 32 mg/kg single i.p.) | % Reduction PTEN RNA ([5]; 100 mg/kg single i.p.) | ED50 [5] | ALT levels - Individual animals ([6]; 3.2 mg/kg) | ALT levels - Individual animals ([6]; 10 mg/kg) | ALT levels - Individual animals ([6]; 32 mg/kg) | ALT levels - Individual animals ([6]; 100 mg/kg) | % pre-dose wt ([7]; 3.2 mg/kg) | % pre-dose wt ([7]; 10 mg/kg) | % pre-dose wt ([7]; 32 mg/kg) | % pre-dose wt ([7]; 100 mg/kg) | spleen weight, % Control ([8]; 3.2 mg/kg) | spleen weight, % Control ([8]; 10 mg/kg) | spleen weight, % Control ([8]; 32 mg/kg) | spleen weight, % Control ([8]; 100 mg/kg) | also measured
^mCas Tas Tds Ads Gds Cds Ads Cds Tds Gds Gds Cds ^mCas Ta [ISIS 435854] |  |  |  |  |  |  |  |  |  |  |  |  |  |  |  |  |  | % Reduction PTEN RNA ([1]; 3.2 mg/kg single i.p.): 48%; % Reduction PTEN RNA ([1]; 10 mg/kg single i.p.): 73%; % Reduction PTEN RNA ([1]; 32 mg/kg single i.p.): 94%; % Reduction PTEN RNA ([1]; 100 mg/kg single i.p.): 95%; ALT levels - Individual animals ([2]; 3.2 mg/kg): 15 IU/L and 22 IU/L and 20 IU/L and 11 IU/L; ALT levels - Individual animals ([2]; 10 mg/kg): 23 IU/L and 21 IU/L and 33 IU/L and 28 IU/L; ALT levels - Individual animals ([2]; 32 mg/kg): 24 IU/L and 29 IU/L and 16 IU/L and 46 IU/L; ALT levels - Individual animals ([2]; 100 mg/kg): 1575 IU/L and 854 IU/L and 1665 IU/L and 3948 IU/L; Serum ALT ([2]; highest dose): elevated; % of pre-dose weight ([3]; 3.2 mg/kg): 99%; % of pre-dose weight ([3]; 10 mg/kg): 102%; % of pre-dose weight ([3]; 32 mg/kg): 102%; % of pre-dose weight ([3]; 100 mg/kg): 94%; body weight ([3]; highest dose): some weight loss; spleen weight, % Control ([4]; 3.2 mg/kg): 112%; spleen weight, % Control ([4]; 10 mg/kg): 87%; spleen weight, % Control ([4]; 32 mg/kg): 115%; spleen weight, % Control ([4]; 100 mg/kg): 160%; spleen weight compared to control and to the non-methylated compound ([4]; mouse, in vivo): marked increase
^mCxs Txs Tds Ads Gds Cds Ads Cds Tds Gds Gds Cds ^mCxs Tx [ISIS 445545] | 21% | 55% | 87% | 92% | 7.7 mg/kg | 20 IU/L and 34 IU/L (2×) and 31 IU/L | 79 IU/L and 19 IU/L and 28 IU/L and 18 IU/L | 22 IU/L and 45 IU/L and 24 IU/L and 47 IU/L | 102 IU/L and 135 IU/L and 277 IU/L and 85 IU/L | 100% | 102% | 101% | 102% | 100% | 99% | 134% | 139% | spleen weight compared to control and to the non-methylated compound ([8]; mouse, in vivo): increase in spleen weight
Cas Uas Tds Ads Gds Cds Ads Cds Tds Gds Gds Cds Cas Ua [ISIS 396006] |  |  |  |  |  |  |  |  |  |  |  |  |  |  |  |  |  | % Reduction PTEN RNA ([1]; 3.2 mg/kg single i.p.): 47%; % Reduction PTEN RNA ([1]; 10 mg/kg single i.p.): 77%; % Reduction PTEN RNA ([1]; 32 mg/kg single i.p.): 95%; % Reduction PTEN RNA ([1]; 100 mg/kg single i.p.): 97%; ALT levels - Individual animals ([2]; 3.2 mg/kg): 27 IU/L and 19 IU/L and 17 IU/L and 24 IU/L; ALT levels - Individual animals ([2]; 10 mg/kg): 18 IU/L and 22 IU/L and 19 IU/L and 20 IU/L; ALT levels - Individual animals ([2]; 32 mg/kg): 24 IU/L and 19 IU/L and 15 IU/L and 23 IU/L; ALT levels - Individual animals ([2]; 100 mg/kg): 28 IU/L (2×) and 23 IU/L (2×); % of pre-dose weight ([3]; 3.2 mg/kg): 100%; % of pre-dose weight ([3]; 10 mg/kg): 101%; % of pre-dose weight ([3]; 32 mg/kg): 101%; % of pre-dose weight ([3]; 100 mg/kg): 100%; spleen weight, % Control ([4]; 3.2 mg/kg): 95%; spleen weight, % Control ([4]; 10 mg/kg): 100%; spleen weight, % Control ([4]; 32 mg/kg): 97%; spleen weight, % Control ([4]; 100 mg/kg): 120%
^MeCSTSTAGCACTGGC^MeCSTS [ISIS 411847] |  |  |  |  |  |  |  |  |  |  |  |  |  |  |  |  |  | PTEN mRNA levels (% inhibition) ([9]; 3.2 mg/kg single i.p.): 0%; PTEN mRNA levels (% inhibition) ([9]; 10 mg/kg single i.p.): 32%; PTEN mRNA levels (% inhibition) ([9]; 32 mg/kg single i.p.): 87%; PTEN mRNA levels (% inhibition) ([9]; 66 mg/kg single i.p.): 84%; PTEN mRNA levels (% inhibition) ([9]; 100 mg/kg single i.p.): 92%; ED50 [9]: 12 mg/kg; ALT levels ([10]; 3.2 mg/kg, serum, saline = 24): 26 IU/L; ALT levels ([10]; 10 mg/kg, serum, saline = 24): 27 IU/L; ALT levels ([10]; 32 mg/kg, serum, saline = 24): 16 IU/L; ALT levels ([10]; 66 mg/kg, serum, saline = 24): 279 IU/L; ALT levels ([10]; 100 mg/kg, serum, saline = 24): 2816 IU/L; ALT level decrease as compared to 392063 treatment ([10]; dose not stated): about 5 fold
Cxs Uxs Tds Ads Gds Cds Ads Cds Tds Gds Gds Cds Cxs Ux [ISIS 445544] | 31% | 72% | 93% | 95% | 4.9 mg/kg | 21 IU/L and 28 IU/L and 30 IU/L and 36 IU/L | 23 IU/L and 33 IU/L and 20 IU/L and 36 IU/L | 23 IU/L and 38 IU/L and 19 IU/L and 22 IU/L | 977 IU/L and 1061 IU/L and 88 IU/L and 133 IU/L | 103% | 101% | 102% | 98% | 98% | 92% | 101% | 109% | 
^mCjs Tjs Tds Ads Gds Cds Ads Cds Tds Gds Gds Cds ^mCjs Tj [ISIS 443394] | 16% | 39% | 68% | 89% | 13.5 mg/kg | 28 IU/L and 26 IU/L and 30 IU/L and 69 IU/L | 55 IU/L and 28 IU/L and 32 IU/L (2×) | 55 IU/L and 25 IU/L (2×) and 28 IU/L | 23 IU/L (2×) and 44 IU/L and 18 IU/L | 102% | 102% | 101% | 101% | 106% | 96% | 97% | 98% | 
CSUSTAGCACTGGCCSUS [ISIS 392749] |  |  |  |  |  |  |  |  |  |  |  |  |  |  |  |  |  | PTEN mRNA levels (% inhibition) ([9]; 3.2 mg/kg single i.p.): 14%; PTEN mRNA levels (% inhibition) ([9]; 10 mg/kg single i.p.): 20%; PTEN mRNA levels (% inhibition) ([9]; 32 mg/kg single i.p.): 81%; PTEN mRNA levels (% inhibition) ([9]; 66 mg/kg single i.p.): 92%; PTEN mRNA levels (% inhibition) ([9]; 100 mg/kg single i.p.): 93%; ED50 [9]: 15 mg/kg; ALT levels ([10]; 3.2 mg/kg, serum, saline = 24): 18 IU/L; ALT levels ([10]; 10 mg/kg, serum, saline = 24): 24 IU/L; ALT levels ([10]; 32 mg/kg, serum, saline = 24): 14 IU/L; ALT levels ([10]; 66 mg/kg, serum, saline = 24): 18 IU/L; ALT levels ([10]; 100 mg/kg, serum, saline = 24): 33 IU/L; ALT levels ([10]; all doses): not elevated to a level indicative of hepatotoxicity
Cjs Uos Tds Ads Gds Cds Ads Cds Tds Gds Gds Cds Cjs Uj [ISIS 443393] | 10% | 35% | 64% | 91% | 16.2 mg/kg | 19 IU/L and 36 IU/L and 83 IU/L and 20 IU/L | 26 IU/L and 33 IU/L and 30 IU/L and 29 IU/L | 21 IU/L and 24 IU/L and 53 IU/L (2×) | 16 IU/L and 22 IU/L and 42 IU/L and 23 IU/L | 101% | 104% | 99% | 98% | 89% | 96% | 110% | 96% | 
